Molecular target: Acetylcholinesterase (Electrophorus electricus, UniProt O42275)
Test: Inhibition of electric eel AChE using acetylthiocholine as substrate incubated for 20 mins prior to substrate addition measured every 30 secs for 4 mins by Ellman's method

Acetylcholinesterase, sequence (O42275 whole entry): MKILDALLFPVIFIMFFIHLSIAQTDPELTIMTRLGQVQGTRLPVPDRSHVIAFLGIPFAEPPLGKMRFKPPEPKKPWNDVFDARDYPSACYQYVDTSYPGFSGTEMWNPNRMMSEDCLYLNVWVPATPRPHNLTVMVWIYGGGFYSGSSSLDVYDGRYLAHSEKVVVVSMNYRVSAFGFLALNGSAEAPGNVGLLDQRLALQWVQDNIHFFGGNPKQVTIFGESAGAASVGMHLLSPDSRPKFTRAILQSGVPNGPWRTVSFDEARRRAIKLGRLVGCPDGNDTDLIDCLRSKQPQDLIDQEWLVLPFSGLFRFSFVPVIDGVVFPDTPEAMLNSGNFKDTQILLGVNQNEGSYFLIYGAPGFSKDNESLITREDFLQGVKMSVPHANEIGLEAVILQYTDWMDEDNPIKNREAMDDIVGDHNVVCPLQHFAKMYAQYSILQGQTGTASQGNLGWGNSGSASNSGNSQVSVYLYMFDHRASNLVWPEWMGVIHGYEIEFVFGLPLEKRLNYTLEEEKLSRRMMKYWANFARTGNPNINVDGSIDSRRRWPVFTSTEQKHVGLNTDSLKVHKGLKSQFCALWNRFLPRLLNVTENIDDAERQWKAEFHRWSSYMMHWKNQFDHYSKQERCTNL

Row | SMILES | IC50
1 | COc1cc(/C=C/c2nnc(-c3ccccc3)o2)cc(OC)c1OC | 24.9 µM
2 | Fc1ccc(-c2nnc(/C=C/c3ccc4c(c3)OCO4)o2)c(Cl)c1 | 19.6 µM
3 | Brc1cncc(-c2nnc(/C=C/c3ccc4c(c3)OCO4)o2)c1 | 52.5 µM
4 | COc1cc(/C=C/c2nnc(-c3cc4ccccc4o3)o2)cc(OC)c1OC | 60.4 µM
5 | COc1cc(/C=C/c2nnc(-c3ccc(Cl)cc3Cl)o2)cc(OC)c1OC | 62.2 µM
6 | C(=C\c1nnc(-c2ccccc2)o1)/c1ccc2c(c1)OCO2 | 50.1 µM
7 | Fc1ccc(-c2nnc(/C=C/c3ccc4c(c3)OCO4)o2)cc1Cl | 49.6 µM
8 | COc1cc(/C=C/c2nnc(-c3ccc([N+](=O)[O-])cc3)o2)cc(OC)c1OC | 49 µM
9 | COc1ccc(-c2nnc(/C=C/c3cc(OC)c(OC)c(OC)c3)o2)cc1 | 61.2 µM
10 | COc1cc(/C=C/c2nnc(-c3cccc([N+](=O)[O-])c3)o2)cc(OC)c1OC | 65.8 µM
11 | COc1ccc(-c2nnc(/C=C/c3ccc4c(c3)OCO4)o2)cc1OC | 40.5 µM
12 | COc1cc(/C=C/c2nnc(-c3ccco3)o2)cc(OC)c1OC | 13.7 µM
13 | COc1cc(/C=C/c2nnc(-c3cccnc3Cl)o2)cc(OC)c1OC | 61.2 µM
14 | Cc1ccc(-c2nnc(/C=C/c3ccc4c(c3)OCO4)o2)cc1 | 45.3 µM
15 | O=[N+]([O-])c1cccc(-c2nnc(/C=C/c3ccc4c(c3)OCO4)o2)c1 | 49.4 µM
16 | COc1cc(/C=C/c2nnc(-c3ccccc3Br)o2)cc(OC)c1OC | 64.9 µM
17 | O=[N+]([O-])c1ccc(-c2nnc(/C=C/c3ccc4c(c3)OCO4)o2)cc1 | 37.6 µM
18 | COc1cc(-c2nnc(/C=C/c3ccc4c(c3)OCO4)o2)cc(OC)c1OC | 48.6 µM
19 | COc1cc(/C=C/c2nnc(-c3cncc(Br)c3)o2)cc(OC)c1OC | 62.8 µM
20 | COc1cc(/C=C/c2nnc(-c3ccccc3Cl)o2)cc(OC)c1OC | 58.1 µM
21 | COc1cc(/C=C/c2nnc(-c3cccnc3)o2)cc(OC)c1OC | 65 µM
22 | COc1cc(/C=C/c2nnc(-c3ccc(C)cc3)o2)cc(OC)c1OC | 60.2 µM
23 | Clc1ccc(-c2nnc(/C=C/c3ccc4c(c3)OCO4)o2)c(Cl)c1 | 50.3 µM
24 | COc1cc(/C=C/c2nnc(-c3cc(OC)c(OC)c(OC)c3)o2)cc(OC)c1OC | 61.5 µM
25 | COc1cc(/C=C/c2nnc(-c3ccc(F)cc3Cl)o2)cc(OC)c1OC | 60.2 µM
26 | Clc1ncccc1-c1nnc(/C=C/c2ccc3c(c2)OCO3)o1 | 54.3 µM
27 | COc1ccc(-c2nnc(/C=C/c3ccc4c(c3)OCO4)o2)cc1 | 42.8 µM
28 | C(=C\c1nnc(-c2cccnc2)o1)/c1ccc2c(c1)OCO2 | 48.5 µM
29 | Clc1ccccc1-c1nnc(/C=C/c2ccc3c(c2)OCO3)o1 | 47.4 µM
30 | Brc1ccccc1-c1nnc(/C=C/c2ccc3c(c2)OCO3)o1 | 40.2 µM

— ChEMBL document CHEMBL2429729, “Synthesis, biological evaluation, and molecular modeling of (E)-2-aryl-5-styryl-1,3,4-oxadiazole derivatives as acetylcholine esterase inhibitors” (Med Chem Res, 2013)
